This passage reports hydrogen peroxide concentration and PEI protonated results from patent publication US20140227333A1, “DRY ACTIVE OXYGEN TECHNOLOGY” (ECOLAB USA INC., priority 2013, published 2014).

Like-named read-outs stand apart in the source and are kept apart here.

Data set [1] is described as follows: Titration of hydrogen peroxide concentration, initially and 24 hours later (stability of the active oxidant). It counts as physicochemical. To be noted: titrated initially and 24 hours later. As to the method: The dry-to-touch powder compositions generated in Example 2 were further analyzed for stability of the active oxidant. The compositions were titrated initially and 24 hours later, giving nearly the same resulting amount of hydrogen peroxide concentration in the untreated liquid composition (35%) and the dry-to-touch powder composition (31%).

The conditions of data set [2]: cited from earlier work.

For the molecule `OO` [liquid hydrogen peroxide (35%), hydrogen peroxide], in data set [1], the hydrogen peroxide concentration amounted to 35%.

Take polyethyleneimine [PEI]: the PEI protonated result is listed as “about 73%” in data set [2] (pH 2); “about 50%” in data set [2] (pH 4); “about 33%” in data set [2] (pH 5); “about 25%” in data set [2] (pH 8); “about 4%” in data set [2] (pH 10).
